The record followed here is patent US20240109865A1, “INDAZOLE COMPOUNDS AS KINASE INHIBITORS” (TYRA BIOSCIENCES, INC., priority 2020, published 2024).

One test concerns the target FGFR1-BCR Ba/F3 cells (Homo sapiens, UniProt P11362). In words: Ba/F3 cell viability assay (CellTiter-Glo 2.0), FGFR1-BCR Ba/F3. It counts as cell-based. The conditions noted are these: read-out: Ba/F3 Cells FGFR1 (IC50 nM), 48 hours, Cell Titer Glo 2.0. The method in brief: (§1)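 IL3-independent Ba/F3 lines driven by FGFR1-BCR or FGFR3-BAIAP2L1 fusions, in RPMI1640/10% FBS. 9-dose 10-fold series from 30 μM, triplicate, 48 h at 37 °C; viability by CellTiter-Glo 2.0 ATP luminescence relative to DMSO control, IC50 from 4-parameter sigmoidal fit.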

In test [1] the test system is RT112/84 cells (FGFR3-fusion). In words: RT112/84 cancer cell line cell viability assay (CellTiter-Glo 2.0). The conditions noted are these: Homo sapiens, 72 hours, Cell Titer Glo 2.0. It counts as cell-based. From the text:
(§2) Experimental Purpose: To detect the change of intracellular ATP by Cell Titer-Glo® and to evaluate the inhibitory effect of the compounds on cancer cell lines by determining the in vitro IC50 value of the compounds.
(§3) Cell Titer-Glo® 2.0 Luminescent cell viability assay reagent was purchased from Promega (Madison, WI). RT112/84 and KG-1 cell lines were purchased from American Type Culture Collection (Manassas, VA). UM-UC-14 cell line was purchased from Sigma (St. Louis, MO). RT112/84, UM-UC-14, and KG-1 cells were cultured in RPMI1640 media supplemented with 10% fetal bovine serum. Cultures were maintained at 37° C. in a humidified atmosphere of 5% C02 and 95% air.
(§4) Cell Viability Assay Procedure: Cells were plated in 96-well clear bottom/white plates (Corning #3903) at 10,000 cells/well in 100 μl of media, incubated overnight. The next day, test compound DMSO stock solutions were made at 10 mM and 2 μM final concentration. Compounds were then added to cells in a 9-dose, 10-fold dilution series starting at 30 μM with an HP 300e Digital Dispenser (each dose was applied in triplicate). DMSO was backfilled to each well up to 301 nL total volume of test compound+DMSO, and a total of 301 nL DMSO was added to a control/no test compound well in triplicate. The cells in cell culture plates were incubated with the compounds at 37° C. and 5% C02 for 72 hours. Then 50 μl of Cell Titer Glo 2.0 reagent was added to each well of the cell culture plates. The contents were covered from light and mixed on an orbital shaker at room temperature for 10 min. Luminescence was recorded by a Synergy H1 Microplate Reader (Biotek, Winooski, VT). Cells were assessed as a percentage of DMSO only treated control cells. Curves were plotted and IC50 values were calculated using the GraphPad Prism 8 program based on a sigmoidal dose-response equation (4 parameter).

In another test the target is FGFR4 (Homo sapiens (Human), UniProt P22455). In words: Kinase assay, binding constants (Kd), kinase-tagged T7 phage, qPCR. A digest of the protocol:
(§5)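 Competition binding: T7 phage-tagged kinase + biotin-ligand beads + compound (11 pts, 3-fold, 0.9% DMSO). Elution 30 min RT with free ligand; qPCR quantitation. Kd via Hill fit, slope −1.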

In another test the target is FGFR3 (V555M) (Homo sapiens (Human), UniProt P22607, V555M). The test is described as above. The following applies: V555M mutant. The method in brief:
as §5

In another test the target is FGFR2 (Homo sapiens (Human), UniProt P21802). The test is described as above. The method in brief: as §5
The target in a further test is FGFR1 (Homo sapiens (Human), UniProt P11362). Described as above. The method in brief: as §5
A further test addresses FGFR3 (Homo sapiens (Human), UniProt P22607). The test is described as above. The method in brief:
as §5

Test [2] concerns KG-1 cells (FGFR1-fusion). Briefly: KG-1 cancer cell line cell viability assay (CellTiter-Glo 2.0). It counts as cell-based. The conditions noted are these: Homo sapiens, 72 hours, Cell Titer Glo 2.0.
Text: as §2, §3, §4

Test [3] concerns the target FGFR3-BAIAP2L1 Ba/F3 cells (Homo sapiens, UniProt P22607). In words: Ba/F3 cell viability assay (CellTiter-Glo 2.0), FGFR3-BAIAP2L1 Ba/F3. The test is classed as cell-based. The following applies: for Ba/F3 FGFR1/FGFR3 Selectivity: FGFR3 > FGFR1 selectivity ratio in Ba/F3 FGFR fusion cell based assays; for IC50: read-out: Ba/F3 Cells FGFR3 (IC50 nM), FGFR3-BAIAP2L1 Ba/F3 cells, 48 hours, Cell Titer Glo 2.0. A digest of the protocol:
as §1

FGFR4, sequence (P22455 22-802): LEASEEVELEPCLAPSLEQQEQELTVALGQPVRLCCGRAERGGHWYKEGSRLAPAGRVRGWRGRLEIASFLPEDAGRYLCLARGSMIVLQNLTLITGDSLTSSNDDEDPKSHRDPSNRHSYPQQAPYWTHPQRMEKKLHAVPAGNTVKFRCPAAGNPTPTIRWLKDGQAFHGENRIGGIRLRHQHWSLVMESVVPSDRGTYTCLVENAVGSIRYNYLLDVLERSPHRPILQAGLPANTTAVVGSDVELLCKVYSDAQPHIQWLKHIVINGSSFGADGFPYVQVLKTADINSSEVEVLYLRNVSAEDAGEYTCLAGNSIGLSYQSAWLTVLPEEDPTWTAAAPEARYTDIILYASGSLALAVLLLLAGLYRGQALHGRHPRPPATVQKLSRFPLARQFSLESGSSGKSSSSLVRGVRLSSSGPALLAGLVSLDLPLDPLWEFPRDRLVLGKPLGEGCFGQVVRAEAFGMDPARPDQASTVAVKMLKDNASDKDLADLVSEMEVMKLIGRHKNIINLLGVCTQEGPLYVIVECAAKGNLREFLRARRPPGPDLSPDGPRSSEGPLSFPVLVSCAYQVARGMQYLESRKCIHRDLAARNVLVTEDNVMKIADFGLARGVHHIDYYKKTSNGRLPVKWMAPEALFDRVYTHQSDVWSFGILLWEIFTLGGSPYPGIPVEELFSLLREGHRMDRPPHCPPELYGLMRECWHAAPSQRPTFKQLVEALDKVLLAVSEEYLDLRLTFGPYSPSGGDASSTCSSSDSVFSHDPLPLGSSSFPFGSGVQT
FGFR3 (V555M), sequence (P22607 23-806 V555M): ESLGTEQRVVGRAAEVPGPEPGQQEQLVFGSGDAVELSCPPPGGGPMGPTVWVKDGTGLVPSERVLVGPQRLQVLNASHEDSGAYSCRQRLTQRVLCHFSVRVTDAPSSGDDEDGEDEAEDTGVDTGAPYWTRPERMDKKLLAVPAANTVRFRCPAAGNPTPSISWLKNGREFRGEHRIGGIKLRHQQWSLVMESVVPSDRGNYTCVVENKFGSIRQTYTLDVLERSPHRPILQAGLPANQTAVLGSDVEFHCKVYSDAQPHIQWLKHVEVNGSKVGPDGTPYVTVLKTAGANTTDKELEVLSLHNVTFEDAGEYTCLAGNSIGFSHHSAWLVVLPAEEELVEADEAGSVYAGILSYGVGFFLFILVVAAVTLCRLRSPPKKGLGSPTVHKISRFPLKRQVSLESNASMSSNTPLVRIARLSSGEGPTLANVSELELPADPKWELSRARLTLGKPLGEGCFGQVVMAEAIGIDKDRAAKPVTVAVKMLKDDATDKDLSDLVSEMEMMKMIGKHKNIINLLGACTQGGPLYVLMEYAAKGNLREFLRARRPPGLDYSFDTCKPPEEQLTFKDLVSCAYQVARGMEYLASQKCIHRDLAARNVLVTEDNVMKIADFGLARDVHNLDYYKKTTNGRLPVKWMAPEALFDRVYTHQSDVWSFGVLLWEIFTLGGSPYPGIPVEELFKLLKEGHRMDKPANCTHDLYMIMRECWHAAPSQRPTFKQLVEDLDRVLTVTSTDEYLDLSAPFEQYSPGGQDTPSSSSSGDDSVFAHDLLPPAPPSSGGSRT
FGFR1, sequence (P11362 22-822): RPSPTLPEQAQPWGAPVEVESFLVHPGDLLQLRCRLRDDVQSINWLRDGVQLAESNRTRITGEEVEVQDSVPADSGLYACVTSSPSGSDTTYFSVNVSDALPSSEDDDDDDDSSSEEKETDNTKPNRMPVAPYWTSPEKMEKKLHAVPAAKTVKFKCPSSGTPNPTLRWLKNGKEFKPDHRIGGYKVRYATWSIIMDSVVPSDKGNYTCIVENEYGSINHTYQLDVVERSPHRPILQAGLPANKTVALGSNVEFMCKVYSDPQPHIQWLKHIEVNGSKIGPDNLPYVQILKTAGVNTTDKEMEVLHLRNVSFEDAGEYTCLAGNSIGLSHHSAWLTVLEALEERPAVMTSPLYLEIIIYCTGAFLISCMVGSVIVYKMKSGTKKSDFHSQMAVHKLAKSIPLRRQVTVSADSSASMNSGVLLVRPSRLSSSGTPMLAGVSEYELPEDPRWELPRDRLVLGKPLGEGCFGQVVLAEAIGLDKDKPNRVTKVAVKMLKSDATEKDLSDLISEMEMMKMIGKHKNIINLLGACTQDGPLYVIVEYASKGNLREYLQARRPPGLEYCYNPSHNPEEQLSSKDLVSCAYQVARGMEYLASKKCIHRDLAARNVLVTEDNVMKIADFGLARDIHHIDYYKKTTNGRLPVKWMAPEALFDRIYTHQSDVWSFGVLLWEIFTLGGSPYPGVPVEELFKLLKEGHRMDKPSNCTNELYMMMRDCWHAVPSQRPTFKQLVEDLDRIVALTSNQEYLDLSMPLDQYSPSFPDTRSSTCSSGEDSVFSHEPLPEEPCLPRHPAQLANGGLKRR
FGFR1-BCR Ba/F3 cells, sequence (P11362 22-822 limits assumed, change not shown): as the sequence (P11362 22-822) above
FGFR3, sequence (P22607 23-806): as the sequence (P22607 23-806 V555M) above, with M533V counted along it
FGFR3-BAIAP2L1 Ba/F3 cells, sequence (P22607 23-806 limits assumed, change not shown): as the sequence (P22607 23-806 V555M) above, with M533V counted along it
FGFR2, sequence (P21802 22-821): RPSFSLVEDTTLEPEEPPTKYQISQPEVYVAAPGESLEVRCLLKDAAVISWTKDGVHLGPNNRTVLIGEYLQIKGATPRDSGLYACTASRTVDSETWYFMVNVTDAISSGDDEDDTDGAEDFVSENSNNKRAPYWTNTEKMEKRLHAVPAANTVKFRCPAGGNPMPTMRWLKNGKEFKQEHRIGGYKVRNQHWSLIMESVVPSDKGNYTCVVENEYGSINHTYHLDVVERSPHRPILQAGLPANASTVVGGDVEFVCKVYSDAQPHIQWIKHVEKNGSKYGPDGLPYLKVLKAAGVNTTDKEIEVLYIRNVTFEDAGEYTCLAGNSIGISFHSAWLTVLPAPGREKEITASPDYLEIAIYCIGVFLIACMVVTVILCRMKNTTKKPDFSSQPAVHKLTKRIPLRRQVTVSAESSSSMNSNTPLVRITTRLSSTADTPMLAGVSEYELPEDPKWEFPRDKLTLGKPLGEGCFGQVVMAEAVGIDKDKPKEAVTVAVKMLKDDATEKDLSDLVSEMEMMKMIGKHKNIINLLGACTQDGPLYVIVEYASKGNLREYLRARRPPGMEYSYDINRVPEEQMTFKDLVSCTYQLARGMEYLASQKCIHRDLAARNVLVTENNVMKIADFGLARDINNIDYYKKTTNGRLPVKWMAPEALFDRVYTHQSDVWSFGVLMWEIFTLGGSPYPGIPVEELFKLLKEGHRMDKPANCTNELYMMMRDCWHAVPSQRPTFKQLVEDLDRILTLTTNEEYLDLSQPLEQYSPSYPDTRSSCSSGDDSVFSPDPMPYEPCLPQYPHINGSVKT

Take `C[C@@H](Oc1ccc2[nH]nc(-c3ccc(N4CCC5(CCC(=O)N5)CC4)nc3)c2c1)c1c(Cl)cncc1Cl` [Example 29, 8-[5-[5-[(1R)-1-(3,5-dichloro-4-pyridyl)ethoxy]-1H-indazol-3-yl]-2-pyridyl]-1,8-diazaspiro[4.5]decan-2-one]: the IC50 on FGFR1-BCR Ba/F3 cells is 100 to 300 nM; in test [1], 1 to 20 nM; in test [2], 20 to 100 nM; in test [3], 1 to 20 nM. Besides, the Kd at FGFR4, on FGFR3 (V555M), on FGFR2, at FGFR1 and on FGFR3 was 1 to 20 nM in each case. Besides, the “Ba/F3 FGFR1/FGFR3 Selectivity” value in test [3] stood at 19.
Take `C[C@@H](Oc1ccc2[nH]nc(-c3ccc(N4CCNC(=O)CC4)nc3)c2c1)c1c(Cl)cncc1Cl` [Example 30, 1-[5-[5-[(1R)-1-(3,5-dichloro-4-pyridyl)ethoxy]-1H-indazol-3-yl]-2-pyridyl]-1,4-diazepan-5-one]: the IC50 at FGFR1-BCR Ba/F3 cells fell in the range of 100 to 300 nM; in test [1], 1 to 20 nM; in [2], 20 to 100 nM; in test [3], 1 to 20 nM. In addition, the Kd on FGFR4, on FGFR3 (V555M), at FGFR2, on FGFR1 and at FGFR3 was 1 to 20 nM in each case. The “Ba/F3 FGFR1/FGFR3 Selectivity” value in test [3] came out at 18.
With `CC(C)N1CC2(CN(c3ccc(-c4n[nH]c5ccc(O[C@H](C)c6c(Cl)cncc6Cl)cc45)cn3)C2)C1` [Example 31, 5-[(1R)-1-(3,5-dichloro-4-pyridyl)ethoxy]-3-[6-(2-isopropyl-2,6-diazaspiro[3.3]heptan-6-yl)-3-pyridyl]-1H-indazole], the IC50 in test [1] was in the range of 1 to 20 nM; in test [2], 20 to 100 nM. The Kd on FGFR4, on FGFR3 (V555M), at FGFR2, on FGFR1 and at FGFR3 was 1 to 20 nM throughout.
Regarding `C[C@@H](Oc1ccc2[nH]nc(-c3cnc(N4CCC5(CCC(=O)N5)CC4)c(F)c3)c2c1)c1c(Cl)cncc1Cl` [Example 42, 8-[5-[5-[(1R)-1-(3,5-dichloro-4-pyridyl)ethoxy]-1H-indazol-3-yl]-3-fluoro-2-pyridyl]-1,8-diazaspiro[4.5]decan-2-one], the IC50 on FGFR1-BCR Ba/F3 cells lay within 100 to 300 nM; in test [1] it was 1 to 20 nM; in test [2] it was 20 to 100 nM; in test [3] it was 1 to 20 nM. Further, the Kd was 1 to 20 nM at FGFR4; 1 to 20 nM on FGFR3 (V555M); 20 to 100 nM on FGFR2; 1 to 20 nM on FGFR1; 1 to 20 nM on FGFR3. In test [3], the “Ba/F3 FGFR1/FGFR3 Selectivity” value is 17.
With `C[C@@H](Oc1ccc2[nH]nc(-c3cnc(N4CCC5(CC4)CC(=O)NC5=O)nc3)c2c1)c1c(Cl)cncc1Cl` [Example 50, 8-[5-[5-[(1R)-1-(3,5-dichloro-4-pyridyl)ethoxy]-1H-indazol-3-yl]pyrimidin-2-yl]-2,8-diazaspiro-[4,5]decane-1,3-dione], the IC50 at FGFR1-BCR Ba/F3 cells was 100 to 300 nM; in test [1], 20 to 100 nM; in test [2], 100 to 300 nM; in test [3], 1 to 20 nM. Moreover, the Kd on FGFR4 lay in the range of 1 to 20 nM; at FGFR3 (V555M), 1 to 20 nM; on FGFR2, 20 to 100 nM; on FGFR1 it was 20 to 100 nM; at FGFR3, 1 to 20 nM. In addition, the “Ba/F3 FGFR1/FGFR3 Selectivity” value in test [3] came out at 16.
For `C[C@@H](Oc1ccc2[nH]nc(-c3cnn(C4CCN(C)CC4)c3)c2c1)c1c(Cl)cncc1Cl` [Example 65, 5-[(1R)-1-(3,5-dichloro-4-pyridyl)ethoxy]-3-[1-(1-methyl-4-piperidyl)pyrazol-4-yl]-1H-indazole], the IC50 lay in the range of 20 to 100 nM at FGFR1-BCR Ba/F3 cells, 1 to 20 nM in [1], 20 to 100 nM in test [2] and 1 to 20 nM in test [3]. Besides, the Kd on FGFR4, at FGFR3 (V555M), on FGFR2, on FGFR1 and on FGFR3 was 1 to 20 nM in each case.
Turning to `C[C@@H](Oc1ccc2[nH]nc(-c3ccc(N4CC5(CCN(S(C)(=O)=O)CC5)C4)nc3)c2c1)c1c(Cl)cncc1Cl` [Example 111, 5-[(1R)-1-(3,5-dichloro-4-pyridyl)ethoxy]-3-[6-(7-methylsulfonyl-2,7-diazaspiro[3.5]nonan-2-yl)-3-pyridyl]-1H-indazole], the IC50 lay in the range of 100 to 300 nM at FGFR1-BCR Ba/F3 cells, 1 to 20 nM in test [1] and 1 to 20 nM in test [3]. The Kd on FGFR4 was 1 to 20 nM; on FGFR3 (V555M) it was 1 to 20 nM; on FGFR2 it was 20 to 100 nM; at FGFR1 it was 20 to 100 nM; at FGFR3 it was 1 to 20 nM. The “Ba/F3 FGFR1/FGFR3 Selectivity” value in [3] came out at 15.
Take `C[C@@H](Oc1ccc2[nH]nc(-c3ccc(N4CC5(C4)CS(=O)(=O)C5)nc3)c2c1)c1c(Cl)cncc1Cl` [Example 112, 6-[5-[5-[(1R)-1-(3,5-dichloro-4-pyridyl)ethoxy]-1H-indazol-3-yl]-2-pyridyl]-2λ^6-thia-6-azaspiro[3.3]heptane 2,2-dioxide]: the IC50 fell in the range of 100 to 300 nM on FGFR1-BCR Ba/F3 cells, 1 to 20 nM in test [1] and 1 to 20 nM in [3]. For the same molecule, the dissociation constant Kd at FGFR4 was in the range of 1 to 20 nM; at FGFR3 (V555M) it was 1 to 20 nM; on FGFR2, 20 to 100 nM; at FGFR1, 1 to 20 nM; at FGFR3, 1 to 20 nM. Also, in [3], the “Ba/F3 FGFR1/FGFR3 Selectivity” value was determined as 12.
Regarding `C[C@@H](Oc1ccc2[nH]nc(-c3ccc(N4CC5(CCS(=O)(=O)CC5)C4)nc3)c2c1)c1c(Cl)cncc1Cl` [Example 113, 2-[5-[5-[(1R)-1-(3,5-dichloro-4-pyridyl)ethoxy]-1H-indazol-3-yl]-2-pyridyl]-7λ^6-thia-2-azaspiro[3.5]nonane 7,7-dioxide], the IC50 on FGFR1-BCR Ba/F3 cells lay in the range of 20 to 100 nM; in test [1], 1 to 20 nM; in test [3] it was 1 to 20 nM. The Kd at FGFR4, at FGFR3 (V555M), at FGFR2, on FGFR1 and at FGFR3 was 1 to 20 nM each time. For the same molecule, the “Ba/F3 FGFR1/FGFR3 Selectivity” value in [3] came to 11.
For the molecule `C[C@@H](Oc1ccc2[nH]nc(-c3cnn(C4CCN(C5COC5)CC4)c3)c2c1)c1cc(F)cc(F)c1` [Example 168, 5-[(1R)-1-(3,5-difluorophenyl)ethoxy]-3-[1-[1-(oxetan-3-yl)-4-piperidyl]pyrazol-4-yl]-1H-indazole], the IC50 is above 300 nM at FGFR1-BCR Ba/F3 cells and 20 to 100 nM in [3]. Besides, the equilibrium dissociation constant (Kd) at FGFR4 was above 300 nM; at FGFR3 (V555M), 1 to 20 nM; at FGFR2, 20 to 100 nM; on FGFR1, 100 to 300 nM; on FGFR3, 1 to 20 nM. Further, the “Ba/F3 FGFR1/FGFR3 Selectivity” value in [3] is reported as 8.
In the case of `C[C@@H](Oc1ccc2[nH]nc(-c3ccc(N4CC5(C4)CN(S(C)(=O)=O)C5)nc3)c2c1)c1c(Cl)cccc1Cl` [Example 170, 5-[(1R)-1-(2,6-dichlorophenyl)ethoxy]-3-[6-(2-methylsulfonyl-2,6-diazaspiro[3.3]heptan-6-yl)-3-pyridyl]-1H-indazole], the results for the IC50 (on FGFR1-BCR Ba/F3 cells; in test [3]) were above 300 nM and 20 to 100 nM, respectively. The Kd lay in the range of 100 to 300 nM on FGFR4; 1 to 20 nM at FGFR3 (V555M); 20 to 100 nM on FGFR2; 100 to 300 nM at FGFR1; 1 to 20 nM on FGFR3. Moreover, the “Ba/F3 FGFR1/FGFR3 Selectivity” value in [3] amounted to 14.
